Values of other authors as cited in patent publication US20110224196A1, “TREATMENT OF O[…] APNEA SYNDROME WITH A COMBINATION OF A CARBONIC ANHYDRASE INHIBITOR AND AN […] AGENT” (Vivus, Inc., priority 2010, published 2011).

Q: Which results are given for `NC(=O)C[S+]([O-])C(c1ccccc1)c1ccccc1` (stereo not shown) [Modafinil, 2-[(diphenylmethy)sulfinyl]-N-acetamide]?
A: solubility in acetone (acetone): sparingly or slightly soluble; solubility in cyclohexane (cyclohexane): insoluble; solubility in methanol (methanol): sparingly or slightly soluble; solubility in water (water): insoluble
